Marks after values point to notes of the source that are not given here.
Legend:
[1] = system: Actinobacillus pleuropneumoniae (App) 92C; experiment: Seeder Pig Infection Model (Example 76); format: in vivo; settings: contact pigs
Description: The compound prepared in Example 30, namely (S)-ethyl 1-(2-thiopheneacetyl)-3-piperidinecarboxylate, was utilized in a test formulation to investigate its efficacy to prevent or control the horizontal transmission of Actinobacillus pleuropneumoniae (App) 92C in a Seeder Pig Infection Model. The seeder pig model was chosen for the efficacy evaluation of the immunopotentiator compounds and analogs to prevent or control disease caused by App in recently weaned pigs. This model mimics a field outbreak of pneumonia in nursery pigs.
The animals tested were purchased from a commercial herd source known to be free of obvious disease and not recently on medication. There were a total of seventy-two (72) pigs, recently weaned and weighing in the approximate range of 15-20 pounds (6.8-9.1 kg). The challenged pigs were infected with an intranasal inoculation of Actinobacillus pleuropneumoniae (App), lyophilized #92C, a serotype 1, Iowa strain. The challenge material was a saline suspension containing a 2.5 hour log-phase growth broth culture, centrifuged and reconstituted at a concentration that contains 3×10^7 App 92C colony forming units (CFU) per pig in a 4 ml dose. An approved Animal Use Protocol governed the conduct of this trial.
Upon arrival, the pigs were double ear-tagged and divided into contact (48) and seeder (24) pig/groups. The seeder pigs were placed in two (2) groups of twelve (12) pigs per room (Groups 1). The contact pigs were placed in (8) groups of six (6) pigs per room (Groups 2-9). Lilly swine ration, AP11 SW and water were available ad libitum. All animals were observed daily and a room record was recorded.
Day −5 Pigs arrive for the acclimation period of a minimum of 5 days.
Day 0 Daily individual observations of clinical impression signs begin and continue throughout the experiment. These were scored on a 0 to 3 scale (0=normal: alert, responsive; 1=slight: dyspnea, rough coat, slow to react; 2=moderate: lethargic, rough coat, breathing difficulty; 3=severe: unresponsive, breathing distress (open mouth).
Day 0 Individual animal weights of the contacts were taken.
Day 0 2 hours prior to infection of the seeder pigs, the contact pigs were injected via the intraperitoneal route with the test formulations. Two (2) rooms of six (6) pigs were treated with each of the following dose levels: 0 μg/pig, 125 μg/pig, 250 μg/pig, and 500 μg/pig.
Day 0 Twenty-four (24) seeder pigs were challenged with a dose containing […] CFU of Actinobacillus pleuropneumoniae (App) 92C inoculum. The infected seeder pigs were then placed, 3 pigs per room, with the 6 treated contact pigs. To maximize the horizontal transmission of App, the living space in the rooms was reduced from 120 sq. ft. to 60 sq. ft., by placing partitions in the rooms.
Day +3 to +5 The seeder pigs were removed from all rooms. The pigs were euthanized, lung pathology was determined and lung cultures were taken. Moribund animals were euthanized. Any animals that succumbed to infection while on test were necropsied, lung lesions were scored and a sample was taken for bacterial isolation.
Day +14 The experiment was terminated. The contact pigs (Groups 2-9) were weighed, euthanized, and necropsied, with lung lesion scoring and bacterial culture assessment.
The test formulations were in an Acetate Buffered Saline vehicle. Samples were analyzed for potency. Data obtained was analyzed for weight gain, mortality, clinical impression scores, lung lesions, and bacteriologic recovery. Statistics were performed as appropriate to detect differences between groups.

chicken leukocytes = experiment: cells; format: cell-based
Method: Various compounds of Formula I were evaluated for in vitro T-lymphocyte blastogenic activity with chicken leukocytes according to the steps described in the following procedure:
(a) Exsanguination step. The leukocytes were obtained from 3-6 week old Hubbard/Peterson broiler chickens. Initially, the chickens were rendered unconscious in a CO2 chamber. The chickens were then exsanguinated via cardiac puncture. In the exsanguination procedure, a syringe was connected to a needle, and the needle was inserted into the area at the base of the neck under the “V” formed by the breast and sternum. After the needle was properly inserted, continuous vacuum was applied to a syringe (connected to the needle) by pulling back on the plunger. It is important to promptly carry out this withdrawal action, because there is only a 10-15 seconds time period after the blood has starting flowing into the syringe before the blood coagulates, and becomes unusable. As soon as the syringe is full (or prior to complete filling if too much time has elapsed such that the blood begins to coagulate), the whole uncoagulated blood is transferred to a tube having the anticoagulant EDTA therein. The tube is then rotated to mix the whole blood and the EDTA. Alternatively, the whole blood can be withdrawn directly into a vacuum container already having EDTA therein, rather than into a syringe.
(b) Leukocyte isolation step. Numerous methods for isolating leukocytes from (uncoagulated) whole blood are known in the art. In a preferred method, the sterile whole blood was combined with methylcellulose (1.5:1). Any blood containing clots was discarded. The mixture was centrifuged at 30×g for ten minutes (300 rpm on Beckman GS-6R centrifuge). The top layer (leukocytes in supernatant) was decanted into a sterile 50 ml conical tube, while taking care to prevent contamination of the sample by red blood cells. The decanted layer was then centrifuged at 200×g for ten minutes (1500 rpm on the Beckman GS-6R centrifuge). The supernatant liquid was discarded, and the resulting cell “pellet” was retained.
The cells were then washed in a solution containing 10 ml PBS (phosphate buffered saline) and Gentamycin (gentamicin sulfate) at a concentration of 50 μg/ml. This solution was centrifuged at 100×g (1000 rpm on the Beckman centrifuge) for five minutes, and the supernatant liquid was discarded. The washing step (including the centrifuging at 100×g) was repeated to ensure complete removal of the methylcellulose. The use of media such as DMEM ([…]) was avoided in the washing steps, since such media may cause agglutination of the white blood cells. Finally, the cells were then suspended in an appropriate media, such as RPMI 1640 tissue cell culture medium, supplemented with phenol red, NaHCO3, and L-Glutamide. Supplemented RPMI 1640 is available from Sigma-Aldrich Chemical Co.
(c) Cell counting and cell viability step. The cells were counted and checked for viability using the Trypan Blue method of exclusion. 0.1 ml of the cell suspension was placed in a 4-5 ml small culture tube along with 0.7 ml HBSS (Hank's Buffered Saline Solution), available from Sigma-Aldrich, and 0.2 ml of a 0.4% solution of aqueous Trypan Blue stain, available from GIBCO BRL, of Grand Island, N.Y. The components were mixed thoroughly but gently, and allowed to sit for 5 minutes (no longer than 15 minutes). The components should not be exposed to the stain for extended periods of time, because such extended exposure may permit viable cells, as well as non-viable cells, to take up dye.
A cover slip was placed on a Bright Line hemacytometer, available from Howser Scientific, and 10 μl of the mixture from the tube was transferred to each chamber. Non-viable cells appear blue under a microscope. The viable cells in one of the 16-square corners of the hemacytometer were then counted. […]

## CCOC(=O)[C@H]1CCCN(C(=O)Cc2cccs2)C1 [Example 30, (S)-Ethyl 1-(2-Thiopheneacetyl)-3-piperidinecarboxylate]
[1]; 125 μg/pig intraperitoneal
  % Lung Consolidation: 14.0%
  % Lung Lesions: 41.5%
  % Mortality: 16.6%
  App Reisolation: 41.5
[1]; 250 μg/pig intraperitoneal
  % Lung Consolidation: 0.44%
  % Lung Lesions: 0* %
  % Mortality: 0%
  App Reisolation: 0*
[1]; 500 μg/pig intraperitoneal
  % Lung Consolidation: 4.0%
  % Lung Lesions: 42.0%
  % Mortality: 0%
  App Reisolation: 42
Chicken leukocytes; Gallus gallus, Leukocyte, chicken leukocytes, read at 72 hours, read-out: MSC (Minimum Stimulatory Concentration)
  minimal effective concentration: 0.1 µg/mL
Chicken leukocytes; Hubbard/Peterson broiler, chicken, 72 h
  MTC (Maximum Tolerable Concentration prior to causing cytotoxicity): 10 µg/mL

From US6664271B1, “Immunopotentiator agents” (Eli Lilly and Company, priority 1999, dated 2003)
